The values below are quoted from earlier work in patent US20060127478A1, “Oral dosage formulation” (priority 2003, published 2006).

SMILES strings stand for the structures. Where two headings read alike, the source gives them in different places.

The conditions of data set [1]: in vivo.
The conditions of data set [2]: Taha et al., NEJM 1996.
In another data set the test system is gastric secretion. As to conditions: following oral administration.

`CCCCC(C)(O)C/C=C/[C@H]1[C@H](O)CC(=O)[C@@H]1CCCCCCC(=O)OC` (mixture of isomers) [Misoprostol]: in data set [1], the “incidence of adverse effects (abdominal pain, diarrhea, nausea, flatulence)” value was “high incidence”.

Take `NC(N)=Nc1nc(CSCCC(N)=NS(N)(=O)=O)cs1` [Famotidine]: the “frequency of gastric and duodenal ulcers associated with non-selective NSAIDs (diclofenac, ibuprofen, naproxen, ketoprofen)” value in data set [2] is “reduce the frequency”. The “nocturnal intra-gastric pH, mean value” is reported as 5.0 (nocturnal dose of 20 mg) and 6.4 (nocturnal dose of 40 mg). For the same compound, under “three and eight hours following administration after breakfast of 20 or 40 mg”, the “basal daytime inter-digestive pH” value is given as “about 5”. For the same compound, the “time at which basal, nocturnal, food and pentagastrin stimulated gastric secretion is inhibited” value with gastric secretion was “one”. For the same compound, in the data set with gastric secretion (maximum effect dose dependent), the “time to maximum effect on gastric secretion” value was “one to three”.
